From patent US8741905B2, “Compounds and methods for treating autoimmune diseases” (The Broad Institute, Inc., priority 2010, dated 2014)

Tests used:
INS-1E cells [1] = assay: Caspase-3 activity assay (Caspase-Glo 3/7) in cytokine-treated INS-1E cells; assay type: cell-based, rat; settings: cytokines, 48 h, Caspase-Glo 3/7
Protocol: INS-1E cells were seeded at 5,000 cells per well in white optical 384-well plates and treated as described for highthroughput screening. After treatment with cytokines and compounds for 48 h, medium was removed and 20 μL Caspase-Glo 3/7 reagent was added. Luminescence was measured after 2 h of incubation using an EnVision plate reader.

INS-1E cells [2] = assay: Cellular ATP levels (CellTiter-Glo) in cytokine-treated INS-1E cells; suppression of cytokine-induced beta-cell apoptosis; assay type: cell-based, rat
Protocol: The compounds were analyzed for activity utilizing methods described in Chou et al. (ACS Chem. Biol. 2010 Aug. 20; 5(8):729-34).
INS-1E cells were seeded at 10,000 cells per well using a Multidrop Combi (Thermo Labsystems) in white optical 384-well plates (Corning Life Sciences). After overnight incubation, medium was removed and 50 μL of RPMI containing 1% FBS and a combination of cytokines (10 ng mL-^1 IL-1β, 50 ng mL^−1 IFN-γ, 25 ngmL^−1 TNF-α) was added to every well. Using libraries of compounds dissolved in DMSO and a CyBi-Well pin-transfer robot (CyBio Corp.), 0.1 μL of each compound was added. After 48 h, medium was removed and 20 μL of CellTiter-Glo reagent was added. Luminescence was measured after 10 min of incubation using an EnVision plate reader (PerkinElmer).
Instrument output files were processed using Pipeline Pilot (Accelrys) and input to MATLAB (The MathWorks) for data normalization. Compound performance scores relative to a distribution of mock-treated (DMSO) wells were calculated using a revised version of the scoring system underlying ChemBank. (Seiler et al., Nucleic Acids Res. 36, D351-359, 2008). The role of replicate treatments was further developed as follows: first, mock-treatment distributions were modeled using all mock-treated wells measured on a single day, regardless of their nominal replicate; second, per-compound scores weighted each in-plate background-subtracted measurement by the uncertainty in that measurement, using the method of maximum likelihood. The uncertainty in a single background-subtracted measurement was estimated using the number of mock-treated wells on the plate and, as a measure of the assay noise, the standard deviation of the per-day mock-treatment distribution. The signal, a weighted average of differences, was scaled by the noise, the standard deviation of the mock treatment distribution.
INS-1E cells were seeded at 10,000 cells/well using a Multidrop Combi (Thermo Labsystems) in white optical 384-well plates (Corning Life Sciences). After overnight incubation, medium was removed and 50 μL RPMI containing the treated compound, 1% FBS and a combination of cytokines (10 ng/mL IL-1β, 50 ng/mL IFN-γ, 25 ng/mL TNF-α) was added to every well. After incubation for 48 hr, medium was removed and 20 μL CellTiter-Glo reagent was added. Luminescence was measured after 10-min incubation using an EnVision plate reader (PerkinElmer).

[3] = INS-1E cells, cytokines IL-1β, IFN-γ, TNF-α, 48 h, CellTiter-Glo, read-out: CTG EC50 in HTS
[4] = Rattus norvegicus, INS-1E cells, cytokines IL-1β, IFN-γ, TNF-α, 48 h, CellTiter-Glo, read-out: CTG EC50 in HTS
[5] = Rattus norvegicus, INS-1E, assay not named, read-out: EC50

Compound | EC50 (INS-1E cells [1]) [µM] | EC50 (INS-1E cells [2]; [3]) [µM] | EC50 (INS-1E cells [1]; Rattus norvegicus) [µM] | EC50 (INS-1E cells [2]; [4]) [µM] | EC50 (INS-1E cells [2]; [5]) [µM]
COc1ccc(S(=O)(=O)N(C)C[C@@H]2Oc3c(NC(=O)Nc4ccc5occc5c4)cccc3C(=O)N([C@@H](C)CO)C[C@H]2C)cc1 [Compound 44A] | > 25 | > 25 | – | – | –
Cc1ccc(S(=O)(=O)N(C)C[C@@H]2Oc3c(NC(=O)Nc4cccc5c4ccn5C)cccc3C(=O)N([C@@H](C)CO)C[C@H]2C)cc1 [Compound 3A, N-(((2R,3R)-5-((S)-1-hydroxypropan-2-yl)-3-methyl-10-(3-(1-methyl-1H-indol-4-yl)ureido)-6-oxo-3,4,5,6-tetrahydro-2H-benzo[b][1,5]oxazocin-2-yl)methyl)-N,4-dimethylbenzenesulfonamide] | – | – | > 10 | > 25 | –
C[C@@H]1CN([C@@H](C)CO)C(=O)c2cccc(NC(=O)Nc3cccc4ccccc34)c2O[C@H]1CN(C)S(=O)(=O)c1cccc(F)c1 [Compound 7A] | > 25 | > 25 | – | – | –
C[C@@H]1CN([C@@H](C)CO)C(=O)c2cccc(NC(=O)Nc3cccc4ccccc34)c2O[C@H]1CN(C)S(=O)(=O)c1ccc2c(c1)OCCCO2 [Compound 25A] | > 25 | > 25 | – | – | –
COc1ccc(S(=O)(=O)N(C)C[C@@H]2Oc3c(NC(=O)Nc4cccc5ccccc45)cccc3C(=O)N([C@@H](C)CO)C[C@H]2C)cc1Cl [Compound 11A] | > 25 | > 10 | – | – | –
COc1ccc(S(=O)(=O)N(C)C[C@@H]2Oc3c(NC(=O)Nc4cccc(Cl)c4Cl)cccc3C(=O)N([C@@H](C)CO)C[C@H]2C)cc1 [Compound 32A, N-(((2R,3R)-10-(3-(2,3-Dichlorophenyl)ureido)-5-((S)-1-hydroxypropan-2-yl)-3-methyl-6-oxo-3,4,5,6-tetrahydro-2H-benzo[b][1,5]oxazocin-2-yl)methyl)-4-methoxy-N-methylbenzenesulfonamide] | – | – | > 25 | > 20 | –
COc1ccc(S(=O)(=O)N(C)C[C@@H]2Oc3c(NC(=O)Nc4ccc5c(c4)OCCO5)cccc3C(=O)N([C@@H](C)CO)C[C@H]2C)cc1 [Compound 47A] | > 25 | > 25 | – | – | –
Cc1ccc(S(=O)(=O)N(C)C[C@@H]2Oc3c(NC(=O)Nc4cccc5ccccc45)cccc3C(=O)N([C@@H](C)CO)C[C@H]2C)cc1 [Compound 2A, N-(((2R,3R)-5-((S)-1-hydroxypropan-2-yl)-3-methyl-10-(3-(naphthalen-1-yl)ureido)-6-oxo-3,4,5,6-tetrahydro-2H-benzo[b][1,5]oxazocin-2-yl)methyl)-N,4-dimethylbenzenesulfonamide] | – | – | > 25 | > 10 | 5.5
C[C@@H]1CN([C@@H](C)CO)C(=O)c2cccc(NC(=O)Nc3cccc4ccccc34)c2O[C@H]1CN(C)S(=O)(=O)c1ccc(Oc2ccccc2)cc1 [Compound 12A] | > 25 | > 25 | – | – | –
COc1ccc(S(=O)(=O)N(C)C[C@@H]2Oc3c(NC(=O)Nc4cccc(-c5ncccn5)c4)cccc3C(=O)N([C@@H](C)CO)C[C@H]2C)cc1 [Compound 39A] | > 25 | > 25 | – | – | –
COc1ccc(S(=O)(=O)N(C)C[C@@H]2Oc3c(NC(=O)Nc4cccc5c4CC(C)(C)O5)cccc3C(=O)N([C@@H](C)CO)C[C@H]2C)cc1 [Compound 46A] | > 25 | > 25 | – | – | –
C[C@@H]1CN([C@@H](C)CO)C(=O)c2cccc(NC(=O)Nc3cccc4ccccc34)c2O[C@H]1CN(C)S(=O)(=O)c1ccc(Cl)cc1 [Compound 5A] | > 25 | > 0.1 | – | – | –
C[C@@H]1CN([C@@H](C)CO)C(=O)c2cccc(NC(=O)Nc3cccc4ccccc34)c2O[C@H]1CN(C)S(=O)(=O)c1cn(C)cn1 [Compound 36A] | > 25 | > 25 | – | – | –
COc1ccc(S(=O)(=O)N(C)C[C@@H]2Oc3c(NC(=O)Nc4cccc5ccccc45)cccc3C(=O)N([C@@H](C)CO)C[C@H]2C)cc1C [Compound 20A, N-(((2R,3R)-5-((S)-1-hydroxypropan-2-yl)-3-methyl-10-(3-(naphthalen-1-yl)ureido)-6-oxo-3,4,5,6-tetrahydro-2H-benzo[b][1,5]oxazocin-2-yl)methyl)-4-methoxy-N,3-dimethylbenzenesulfonamide] | – | – | > 0.1 | > 0.1 | 0.314
C[C@@H]1CN([C@@H](C)CO)C(=O)c2cccc(NC(=O)Nc3cccc4ccccc34)c2O[C@H]1CN(C)S(=O)(=O)c1ccc2c(c1)OCO2 [Compound 23A] | > 25 | > 25 | – | – | –
COc1ccc(S(=O)(=O)N(C)C[C@@H]2Oc3c(NC(=O)Nc4cccc(-c5ccccc5)c4)cccc3C(=O)N([C@@H](C)CO)C[C@H]2C)cc1 [Compound 40A] | > 25 | > 25 | – | – | –

Compound | EC50 (INS-1E cells [1]) [µM] | EC50 (INS-1E cells [2]; [3]) [µM] | EC50 (INS-1E cells [1]; Rattus norvegicus) [µM] | EC50 (INS-1E cells [2]; [4]) [µM] | EC50 (INS-1E cells [2]; [5]) [µM]
C[C@@H]1CN([C@@H](C)CO)C(=O)c2cccc(NC(=O)Nc3cccc4ccccc34)c2O[C@H]1CN(C)S(=O)(=O)c1ccc(-c2ccccc2)cc1 [Compound 13A] | > 25 | > 25 | – | – | –
COc1ccc(S(=O)(=O)N(C)C[C@@H]2Oc3c(NC(=O)Nc4ccccc4)cccc3C(=O)N([C@@H](C)CO)C[C@H]2C)cc1 [Compound 33A] | > 25 | > 25 | – | – | –
C[C@@H]1CN([C@@H](C)CO)C(=O)c2cccc(NC(=O)Nc3cccc4ccccc34)c2O[C@H]1CN(C)S(=O)(=O)c1ccc2c(c1)OCC2 [Compound 24A] | > 25 | > 25 | – | – | –
C[C@@H]1CN([C@@H](C)CO)C(=O)c2cccc(NC(=O)Nc3ccc(F)cc3)c2O[C@H]1CN(C)S(=O)(=O)c1ccc(Cl)cc1 [Compound 30A, 4-Chloro-N-(((2R,3R)-10-(3-(4-fluorophenyl)ureido)-5-((S)-1-hydroxypropan-2-yl)-3-methyl-6-oxo-3,4,5,6-tetrahydro-2H-benzo[b][1,5]oxazocin-2-yl)methyl)-N-methylbenzenesulfonamide] | – | – | > 25 | > 25 | –
Cc1ccc(S(=O)(=O)N(C)C[C@@H]2Oc3c(NC(=O)Nc4ccc(F)cc4)cccc3C(=O)N([C@@H](C)CO)C[C@H]2C)cc1 [Compound 37A] | > 25 | > 25 | – | – | –
C[C@@H]1CN([C@@H](C)CO)C(=O)c2cccc(NC(=O)Nc3ccccc3)c2O[C@H]1CN(C)S(=O)(=O)c1ccc(Cl)cc1 [Compound 31A] | > 20 | > 20 | – | – | –
COc1ccc(S(=O)(=O)N(C)C[C@@H]2Oc3c(NC(=O)c4cc(C)nn4C)cccc3C(=O)N([C@@H](C)CO)C[C@H]2C)cc1 [Compound 34A] | > 25 | > 25 | – | – | –
C[C@@H]1CN([C@@H](C)CO)C(=O)c2cccc(NC(=O)Nc3cccc4ccccc34)c2O[C@H]1CN(C)CS(=O)(=O)c1ccc(F)cc1 [Compound 9A] | > 25 | > 25 | – | – | –
C[C@@H]1CN([C@@H](C)CO)C(=O)c2cccc(NC(=O)Nc3cccc4ccccc34)c2O[C@H]1CN(C)S(=O)(=O)c1ccc2c(c1)CCC(=O)N2 [Compound 14A] | > 25 | > 25 | – | – | –
C[C@@H]1CN([C@@H](C)CO)C(=O)c2cccc(NC(=O)Nc3cccc4ccccc34)c2O[C@H]1CN(C)S(=O)(=O)c1ccc(OC(F)(F)F)cc1 [Compound 16A] | > 25 | > 10 | – | – | –
COc1ccc(S(=O)(=O)N(C)C[C@@H]2Oc3c(NC(=O)Nc4cccc5c4CCCC5)cccc3C(=O)N([C@@H](C)CO)C[C@H]2C)cc1 [Compound 43A] | > 25 | > 25 | – | – | –
COc1ccc(S(=O)(=O)N(C)C[C@@H]2Oc3c(NC(=O)Nc4cc(F)cc5c4OCOC5)cccc3C(=O)N([C@@H](C)CO)C[C@H]2C)cc1 [Compound 48A] | > 25 | > 25 | – | – | –
C[C@@H]1CN([C@@H](C)CO)C(=O)c2cccc(NC(=O)Nc3cccc4ccccc34)c2O[C@H]1CN(C)S(=O)(=O)c1ccccc1F [Compound 8A] | > 25 | > 25 | – | – | –
COc1ccccc1S(=O)(=O)N(C)C[C@@H]1Oc2c(NC(=O)Nc3cccc4ccccc34)cccc2C(=O)N([C@@H](C)CO)C[C@H]1C [Compound 17A] | > 25 | > 25 | – | – | –
COc1cccc(S(=O)(=O)N(C)C[C@@H]2Oc3c(NC(=O)Nc4cccc5ccccc45)cccc3C(=O)N([C@@H](C)CO)C[C@H]2C)c1 [Compound 18A] | > 25 | > 25 | – | – | –
Cc1ccc(S(=O)(=O)N(C)C[C@@H]2Oc3c(NC(=O)Nc4ccc(F)cc4)cccc3C(=O)N([C@H](C)CO)C[C@H]2C)cc1 [Compound 37B] | – | > 25 | – | – | –
